Test results from the supplement of paper PMC11061612.

Key:
MK-2206 = compound: NC1(c2ccc(-c3nc4ccn5c(=O)[nH]nc5c4cc3-c3ccccc3)cc2)CCC1 [MK-2206]; details: max 10 µM
Procedure, shortened: (§1)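 Plates with 1536 wells received cancer cell lines in 7.5 μl of DMEM/F12 or RPMI containing 10% FBS. After 24 hours at 37°C and 5% CO2, cells were dosed for 72 hours with final DMSO typically 0.2%, and viability was read by CellTiter-Glo 2.0 luminescence scaled between blank-well and DMSO-well means. The single-agent IC50 was taken from a logistic fit of the dose responses made with a non-linear mixed effects model, that logistic curve having two parameters.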

AZD1390 = compound: CC(C)n1c(=O)n(C)c2cnc3cc(F)c(-c4ccc(OCCCN5CCCCC5)nc4)cc3c21 [AZD1390]; details: max 0.3 µM
Procedure, shortened: as §1

Gefitinib = compound: COc1cc2ncnc(Nc3ccc(F)c(Cl)c3)c2cc1OCCCN1CCOCC1 [Gefitinib]; details: max 10 µM
Procedure, shortened: as §1

Olaparib = compound: O=C(c1cc(Cc2n[nH]c(=O)c3ccccc23)ccc1F)N1CCN(C(=O)C2CC2)CC1 [Olaparib]; details: max 10 µM
Procedure, shortened: as §1

AZD2811 = compound: CCN(CCO)CCCOc1ccc2c(Nc3cc(CC(=O)Nc4cccc(F)c4)[nH]n3)ncnc2c1 [AZD2811]; details: max 1 µM
Procedure, shortened: as §1

AZD5991 = compound: Cc1c2c(nn1C)CSCc1cc(n(C)n1)CSc1cc(c3ccccc3c1)OCCCc1c(C(=O)O)n(C)c3c-2c(Cl)ccc13 [AZD5991]; details: max 1 µM
Procedure, shortened: as §1

AZD5363 = compound: C1CN(CCC1(C(=O)N[C@@H](CCO)C2=CC=C(C=C2)Cl)N)C3=NC=NC4=C3C=CN4 [AZD5363]; details: max 10 µM
Procedure, shortened: as §1

AZD1775 = compound: C=CCn1c(=O)c2cnc(Nc3ccc(N4CCN(C)CC4)cc3)nc2n1-c1cccc(C(C)(C)O)n1 [AZD1775]; details: max 3 µM
Procedure, shortened: as §1

SN-38 = compound: CCc1c2c(nc3ccc(O)cc13)-c1cc3c(c(=O)n1C2)COC(=O)[C@]3(O)CC [SN-38]; details: max 0.3 µM
Procedure, shortened: as §1

AZD8186 = compound: C[C@@H](Nc1cc(F)cc(F)c1)c1cc(C(=O)N(C)C)cc2c(=O)cc(N3CCOCC3)oc12 [AZD8186]; details: max 10 µM
Procedure, shortened: as §1

Palbociclib = compound: CC(=O)c1c(C)c2cnc(Nc3ccc(N4CCNCC4)cn3)nc2n(C2CCCC2)c1=O [Palbociclib]; details: max 10 µM
Procedure, shortened: as §1

Trametinib = compound: CC(=O)Nc1cccc(-n2c(=O)n(C3CC3)c(=O)c3c(Nc4ccc(I)cc4F)n(C)c(=O)c(C)c32)c1 [Trametinib]; details: max 1 µM
Procedure, shortened: as §1

Lapatinib = compound: CS(=O)(=O)CCNCc1ccc(-c2ccc3ncnc(Nc4ccc(OCc5cccc(F)c5)c(Cl)c4)c3c2)o1 [Lapatinib]; details: max 10 µM
Procedure, shortened: as §1

Etoposide = compound: COc1cc([C@@H]2c3cc4c(cc3[C@@H](O[C@@H]3O[C@@H]5CO[C@@H](C)O[C@H]5[C@H](O)[C@H]3O)[C@H]3COC(=O)[C@H]23)OCO4)cc(OC)c1O [Etoposide]; details: max 10 µM
Procedure, shortened: as §1

[1] = compound: O=C(Nc1ccc2[nH]nc(-c3ccncc3)c2c1)[C@@H]1CCN(CC(=O)N2CCN(c3ccc(-c4ncccn4)cc3)CC2)C1; details: max 5 µM
Procedure, shortened: as §1

Carboplatin = compound: C1CC(C1)(C(=O)[O-])C(=O)[O-].N.N.[Pt+2] [Carboplatin]; details: max 10 µM
Procedure, shortened: as §1

Crizotinib = compound: C[C@@H](Oc1cc(-c2cnn(C3CCNCC3)c2)cnc1N)c1c(Cl)ccc(F)c1Cl [Crizotinib]; details: max 10 µM
Procedure, shortened: as §1

Prexasertib = compound: COc1cccc(OCCCN)c1-c1cc(Nc2cnc(C#N)cn2)n[nH]1 [Prexasertib]; details: max 1 µM
Procedure, shortened: as §1

AZD5153 = compound: COc1nnc2ccc(N3CCC(c4ccc(OCCN5CCN(C)C(=O)[C@H]5C)cc4)CC3)nn12 [AZD5153]; details: max 1 µM
Procedure, shortened: as §1

Doxorubicin = compound: COc1cccc2c1C(=O)c1c(O)c3c(c(O)c1C2=O)C[C@@](O)(C(=O)CO)C[C@@H]3O[C@H]1C[C@H](N)[C@H](O)[C@H](C)O1 [Doxorubicin]; details: max 1 µM
Procedure, shortened: as §1

SRA737 = compound: N#Cc1cnc(Nc2cc(NC[C@H]3CNCCO3)c(C(F)(F)F)cn2)cn1 [SRA737]; details: max 10 µM
Procedure, shortened: as §1

Gemcitabine = compound: Nc1ccn([C@@H]2O[C@H](CO)[C@@H](O)C2(F)F)c(=O)n1 [Gemcitabine]; details: max 0.3 µM
Procedure, shortened: as §1

Venetoclax = compound: CC1(C)CCC(CN2CCN(c3ccc(C(=O)NS(=O)(=O)c4ccc(NCC5CCOCC5)c([N+](=O)[O-])c4)c(Oc4cnc5[nH]ccc5c4)c3)CC2)=C(c2ccc(Cl)cc2)C1 [Venetoclax]; details: max 1 µM
Procedure, shortened: as §1

SG3199 = compound: CC1=CN2[C@@H](C1)C=NC3=CC(=C(C=C3C2=O)OC)OCCCCCOC4=C(C=C5C(=C4)N=C[C@@H]6CC(=CN6C5=O)C)OC [SG3199]; details: max 0.001 µM
Procedure, shortened: as §1

5-Fluorouracil = compound: O=c1[nH]cc(F)c(=O)[nH]1 [5-Fluorouracil]; details: max 20 µM
Procedure, shortened: as §1

Selumetinib = compound: Cn1cnc2c(F)c(Nc3ccc(Br)cc3Cl)c(C(=O)NOCCO)cc21 [Selumetinib]; details: max 10 µM
Procedure, shortened: as §1

AZD6738 = compound: C[C@@H]1COCCN1C2=NC(=NC(=C2)C3(CC3)[S@](=N)(=O)C)C4=C5C=CNC5=NC=C4 [AZD6738]; details: max 10 µM
Procedure, shortened: as §1

AZD4320 = compound: CN(CC[C@H](CSC1=CC=CC=C1)NC2=C(C=C(C=C2)S(=O)(=O)NC(=O)C3=CC=C(C=C3)N4CCC(CC4)[C@H](C5=CC=CC=C5C6=CC=C(C=C6)Cl)O)S(=O)(=O)C(F)(F)F)CCO [AZD4320]; details: max 1 µM
Procedure, shortened: as §1

AZD7648 = compound: Cc1cc2ncnn2cc1Nc1ncc2c(n1)n(C1CCOCC1)c(=O)n2C [AZD7648]; details: max 10 µM
Procedure, shortened: as §1

AZD0156 = compound: CN(C)CCCOc1ccc(-c2ccc3ncc4c(c3c2)n(C2CCOCC2)c(=O)n4C)cn1 [AZD0156]; details: max 3 µM
Procedure, shortened: as §1

Paclitaxel = compound: CC(=O)O[C@H]1C(=O)[C@@]2(C)[C@H]([C@H](OC(=O)c3ccccc3)[C@]3(O)C[C@H](OC(=O)[C@H](O)[C@@H](NC(=O)c4ccccc4)c4ccccc4)C(C)=C1C3(C)C)[C@]1(OC(C)=O)CO[C@@H]1C[C@@H]2O [Paclitaxel]; details: max 3 µM
Procedure, shortened: as §1

Taselisib = compound: Cc1nc(-c2cn3c(n2)-c2ccc(-c4cnn(C(C)(C)C(N)=O)c4)cc2OCC3)n(C(C)C)n1 [Taselisib]; details: max 10 µM
Procedure, shortened: as §1

Dasatinib = compound: CC1=C(C(=CC=C1)Cl)NC(=O)C2=CN=C(S2)NC3=CC(=NC(=N3)C)N4CCN(CC4)CCO [Dasatinib]; details: max 2 µM
Procedure, shortened: as §1

Alisertib = compound: COc1cc(Nc2ncc3c(n2)-c2ccc(Cl)cc2C(c2c(F)cccc2OC)=NC3)ccc1C(=O)O [Alisertib]; details: max 10 µM
Procedure, shortened: as §1

Savolitinib = compound: C[C@@H](c1ccc2nccn2c1)n1nnc2ncc(-c3cnn(C)c3)nc21 [Savolitinib]; details: max 1 µM
Procedure, shortened: as §1

Cell Line	IC50, cell viability 72 h (MK-2206)	IC50, cell viability 72 h (AZD1390)	IC50, cell viability 72 h (Gefitinib)	IC50, cell viability 72 h (Olaparib)	IC50, cell viability 72 h (AZD2811)	IC50, cell viability 72 h (AZD5991)	IC50, cell viability 72 h (AZD5363)	IC50, cell viability 72 h (AZD1775)	IC50, cell viability 72 h (SN-38)	IC50, cell viability 72 h (AZD8186)	IC50, cell viability 72 h (Palbociclib)	IC50, cell viability 72 h (Trametinib)	IC50, cell viability 72 h (Lapatinib)	IC50, cell viability 72 h (Etoposide)	IC50, cell viability 72 h [1]	IC50, cell viability 72 h (Carboplatin)	IC50, cell viability 72 h (Crizotinib)	IC50, cell viability 72 h (Prexasertib)	IC50, cell viability 72 h (AZD5153)	IC50, cell viability 72 h (Doxorubicin)	IC50, cell viability 72 h (SRA737)	IC50, cell viability 72 h (Gemcitabine)	IC50, cell viability 72 h (Venetoclax)	IC50, cell viability 72 h (SG3199)	IC50, cell viability 72 h (5-Fluorouracil)	IC50, cell viability 72 h (Selumetinib)	IC50, cell viability 72 h (AZD6738)	IC50, cell viability 72 h (AZD4320)	IC50, cell viability 72 h (AZD7648)	IC50, cell viability 72 h (AZD0156)	IC50, cell viability 72 h (Paclitaxel)	IC50, cell viability 72 h (Taselisib)	IC50, cell viability 72 h (Dasatinib)	IC50, cell viability 72 h (Alisertib)	IC50, cell viability 72 h (Savolitinib)
NCI-H1581 (Non-Small Cell Lung Carcinoma)	> 10 µM	> 0.3 µM	> 10 µM	> 10 µM	> 1 µM	0.163 µM	> 10 µM	1.77 µM	0.0795 µM	> 10 µM	> 10 µM	0.545 µM	> 10 µM	5.32 µM	3.23 µM	> 10 µM	> 10 µM	> 1 µM	> 1 µM	> 1 µM	> 10 µM	0.195 µM	> 1 µM	> 0.001 µM	> 20 µM	> 10 µM	> 10 µM	> 1 µM	> 10 µM	> 3 µM	0.00382 µM	> 10 µM	> 2 µM	2.06 µM	> 1 µM
ECC10 (Gastric Carcinoma)	> 10 µM	> 0.3 µM	> 10 µM	> 10 µM	0.0252 µM	0.713 µM	> 10 µM	1.13 µM	0.00773 µM	> 10 µM	> 10 µM	0.237 µM	6.71 µM	1.86 µM	0.375 µM	> 10 µM	4.92 µM	0.324 µM	0.139 µM	0.131 µM	> 10 µM	0.05 µM	0.23 µM	> 0.001 µM	> 20 µM	> 10 µM	> 10 µM	0.0218 µM	> 10 µM	> 3 µM	0.0109 µM	> 10 µM	> 2 µM	0.2 µM	> 1 µM
VCaP (Prostate Carcinoma)	9.7 µM	> 0.3 µM	> 10 µM	> 10 µM	> 1 µM	0.316 µM	7.96 µM	1.45 µM	0.205 µM	> 10 µM	> 10 µM	> 1 µM	> 10 µM	9.35 µM	> 5 µM	> 10 µM	> 10 µM	0.0854 µM	0.122 µM	> 1 µM	> 10 µM	0.065 µM	> 1 µM	> 0.001 µM	> 20 µM	> 10 µM	> 10 µM	> 1 µM	> 10 µM	> 3 µM	0.0224 µM	3.15 µM	> 2 µM	> 10 µM	> 1 µM
NCI-H1666 (Lung Adenocarcinoma)	> 10 µM	> 0.3 µM	> 10 µM	> 10 µM	> 1 µM	> 1 µM	> 10 µM	> 3 µM	0.238 µM	> 10 µM	> 10 µM	0.103 µM	> 10 µM	> 10 µM	> 5 µM	> 10 µM	> 10 µM	> 1 µM	> 1 µM	> 1 µM	> 10 µM	> 0.3 µM	> 1 µM	> 0.001 µM	> 20 µM	7.17 µM	> 10 µM	> 1 µM	> 10 µM	> 3 µM	0.794 µM	3.2 µM	> 2 µM	> 10 µM	> 1 µM
COLO-320-HSR (Colorectal Carcinoma)	> 10 µM	> 0.3 µM	> 10 µM	> 10 µM	> 1 µM	0.489 µM	> 10 µM	0.459 µM	> 0.3 µM	> 10 µM	> 10 µM	> 1 µM	> 10 µM	> 10 µM	> 5 µM	> 10 µM	> 10 µM	0.232 µM	> 1 µM	> 1 µM	> 10 µM	0.26 µM	> 1 µM	> 0.001 µM	> 20 µM	> 10 µM	7.94 µM	> 1 µM	> 10 µM	> 3 µM	0.411 µM	> 10 µM	> 2 µM	> 10 µM	> 1 µM
